{"source": "paper PMC5190053", "about": "“Blocking the PAH2 domain of Sin3A inhibits tumorigenesis and confers retinoid sensitivity in triple negative breast cancer” (Oncotarget, 2016)", "target": "T1, mSin3A PAH2 domain; SIN3A PAH2; Sin3A", "T1 construct": "PAH2 (paired amphipathic helix 2) domain only", "experiment": "fluorescence anisotropy competition assay", "assay_type": "binding, Mus musculus", "conditions": "conditions cited to earlier work", "data": [{"molecule": "O=C(O)c1cccc2c1NC(c1cccc(Cl)c1Cl)C1CC=CC21", "note": "(stereo not shown) [C16, 4-(2,3-Dichlorophenyl)-3a,4,5,9b-tetrahydro-3H-cyclopenta[c]quinoline-6-carboxylic acid]", "values": [{"measurement": "Ki", "value": 23.6, "unit": "µM"}]}]}
